Experimental data as given in US20240251795A1, “METHOD FOR C[…] RESISTANT PESTS & COMPOUNDS THEREFOR” (priority 2021, published 2024).
Converted amounts (≈) assume the structure as drawn.

How the values were obtained:
[1] = system: multi-resistant Plutella xylostella larvae having the G4946E resistance mutation (strain R1); test: Resistant Plutella xylostella R1 (Diamond Back Moth) Larvicide L3, Feeding/Contact; type: in vivo; settings: for EC80: Plutella xylostella, in Brassica rapa, 96 h, read-out: Rate providing at least 80% control of the resistant strain of Plutella xylostella R1
Procedure: Resistant Plutella xylostella R1 (Diamond Back Moth) Larvicide L3, Feeding/Contact
Chinese cabbage plants were sprayed with diluted test solutions in an application chamber. Cut off leaves were placed into petri dishes with wetted filter paper and infested 1 day after application with 10 L3 multi-resistant Plutella xylostella larvae having the G4946E resistance mutation. Samples were assessed 4 days after infestation for mortality and growth regulation. CTPR was used as standard and a resistance factor of 146 was obtained for this strain.
Plutella xylostella resistant strain R1 originally collected from Taiwan in 2012 that carries the RyR mutation G4946E conferring resistance to diamides. The strain is reared on cabbage plants (Brassica aleracea) and selected approximately every two weeks with chlorantraniliprole.

[2] = system: Plutella xylostella resistant strain R4 (RyR mutation G4946E); test: Resistant Plutella xylostella R4 (Diamond back moth) larvicide L1, feeding/contact; type: in vivo; settings: for Rate providing at least 80% control of the resistant strain of Plutella xylostella R4: L1, artificial diet in 24-well plates, around 30 eggs, mortality vs untreated assessed 8 days after infestation
Procedure: Resistant Plutella xylostella R^4 (Diamond back moth) larvicide L1, feeding/contact 24-well microtiter plates with artificial diet were treated with aqueous test solutions prepared from 10′000 ppm DMSO stock solutions by pipetting. After drying, around 30 Plutella eggs were pipetted through a plastic stencil onto a gel blotting paper and the plate was closed with it. The samples were assessed for mortality in comparison to untreated samples 8 days after infestation.
CTPR was used as standard and a resistance factor of 242 was obtained for this strain
Plutella xylostella resistant strain R4 originated in the lab in 2021 from crossing the R1 strain with a lab-reared susceptible P. xylostella strain (SUS). R4 can be reared and tested on artificial diet and also carries the RyR mutation G4946E conferring resistance to diamides. The strain is selected approximately every two weeks with chlorantraniliprole.

Row | SMILES | EC80 [1] [µg/mL] | melting point [°C] | also measured
1 | CNC(=O)c1cc2cc(Br)ccc2c(Br)c1NC(=O)c1cc(C(F)(F)F)nn1-c1ncccc1Cl | 50 (≈ 79.2 µM) | – | –
2 | CNC(=O)c1cc2cc(Br)ccc2c(Br)c1NC(=O)c1cc(OCC(F)(F)F)nn1-c1ncccc1Cl | 12.5 (≈ 18.9 µM) | – | –
3 | CC(C)NC(=O)c1cc2nn(C)cc2c(Cl)c1NC(=O)c1cc(C(F)(F)F)nn1-c1ncccc1Cl | > 50 | – | Rate providing at least 80% control of the resistant strain of Plutella xylostella R4 [2]: >50 ppm
4 | CNC(=O)c1cc2cc(Br)ccc2c(Br)c1NC(=O)c1cc(Br)nn1-c1ncccc1Cl | > 200 | – | –
5 | CNC(=O)c1cc2cc(Cl)ccc2c(Cl)c1NC(=O)c1cc(Br)nn1-c1ncccc1Cl | 200 (≈ 361 µM) | – | –
6 | O=C(NC1CC1)c1cc2cc(Br)ccc2c(Cl)c1NC(=O)c1cc(Br)nn1-c1ncccc1Cl | 200 (≈ 320 µM) | – | –
7 | CC(C)NC(=O)c1cc2cc(Br)ccc2c(Cl)c1NC(=O)c1cc(Br)nn1-c1ncccc1Cl | 200 (≈ 319 µM) | – | –
8 | CNC(=O)c1cc2nc(C(F)(F)F)ccc2c(C)c1NC(=O)c1cc(C(F)F)nn1-c1ncccc1Cl | 200 (≈ 371 µM) | – | –
9 | CNC(=O)c1cc2nc(C)oc2c(C)c1NC(=O)c1cc(Br)nn1-c1ncccc1Cl | – | – | Rate providing at least 80% control of the resistant strain of Plutella xylostella R4 [2]: >50 ppm
10 | CNC(=O)c1cc2cc(Br)ccc2c(Cl)c1NC(=O)c1cc(C(F)(F)F)nn1-c1ncccc1Cl | > 200 | – | –
11 | CNC(=O)c1cc2cc(Br)ccc2c(Cl)c1NC(=O)c1cc(Cl)nn1-c1ncccc1Cl | > 200 | – | –
12 | Cc1c(NC(=O)c2cc(C(F)(F)F)nn2-c2ncccc2Cl)c(C(N)=O)cc2c1OC(F)(F)O2 | – | 223 to 225 | –
13 | NC(=O)c1cc2ccccc2c(Cl)c1NC(=O)c1cc(OCC(F)(F)C(F)(F)F)nn1-c1ncccc1Cl | – | 264 to 266 | –
14 | Cc1c(NC(=O)c2cc(Br)nn2-c2ncccc2Cl)c(C(N)=O)cc2nn(C)cc12 | – | 242 to 244 | –
15 | NC(=O)c1cc2cc(Br)ccc2c(Cl)c1NC(=O)c1cc(Cn2ncc3c(Cl)cccc32)nn1-c1ncccc1Cl | – | 149 to 157 | –
16 | NC(=O)c1cc2cc(Br)ccc2c(Cl)c1NC(=O)c1cc(Cn2nnc(C(F)(F)F)n2)nn1-c1ncccc1Cl | – | 190 to 226 | –
17 | CNC(=O)c1cc(Cl)cc(C)c1NC(=O)c1cc(Br)nn1-c1ncccc1Cl [CTPR, chlorantraniliprole, reference compound] | – | – | resistance factor ([1]; strain R1, CTPR used as standard): 146; resistance factor ([2]; strain R4, CTPR used as standard): 242
18 | NC(=O)c1cc2cc(Br)ccc2c(Br)c1NC(=O)c1cc(OCC(F)(F)F)nn1-c1ncccc1Cl [P.1, 2-(3-chloro-2-pyridyl)-N-(1,6-dibromo-3-carbamoyl-2-naphthyl)-5-(2,2,2-trifluoroethoxy)pyrazole-3-carboxamide] | 3 (≈ 4.63 µM) | – | –

Row | SMILES | EC80 [1] [µg/mL] | melting point [°C] | also measured
19 | NC(=O)c1cc2cc(Br)ccc2c(Br)c1NC(=O)c1cc(C(F)(F)F)nn1-c1ncccc1Cl [P.4, 2-(3-chloro-2-pyridyl)-N-(1,6-dibromo-3-carbamoyl-2-naphthyl)-5-(trifluoromethyl)pyrazole-3-carboxamide] | 12.5 (≈ 20.2 µM) | – | –
20 | Cc1c(NC(=O)c2cc(C(F)F)nn2-c2ncccc2Cl)c(C(N)=O)cc2nc(C(F)(F)F)ccc12 [P.7, 6-[[2-(3-chloro-2-pyridyl)-5-(difluoromethyl)pyrazole-3-carbonyl]amino]-5-methyl-2-(trifluoromethyl)quinoline-7-carboxamide] | 12.5 (≈ 23.8 µM) | – | –
21 | NC(=O)c1cc2cc(Br)ccc2c(Br)c1NC(=O)c1cc(Br)nn1-c1ncccc1Cl [P.8, 5-bromo-2-(3-chloro-2-pyridyl)-N-(1,6-dibromo-3-carbamoyl-2-naphthyl)pyrazole-3-carboxamide] | 50 (≈ 79.6 µM) | – | –
22 | NC(=O)c1cc2ccccc2c(Cl)c1NC(=O)c1cc(C(F)(F)F)nn1-c1ncccc1Cl [P.10, N-(3-carbamoyl-1-chloro-2-naphthyl)-2-(3-chloro-2-pyridyl)-5-(trifluoromethyl)pyrazole-3-carboxamide] | – | 155 to 157 | –
23 | NC(=O)c1cc2ccccc2c(Cl)c1NC(=O)c1cc(OCC(F)(F)F)nn1-c1ncccc1Cl [P.11, N-(3-carbamoyl-1-chloro-2-naphthyl)-2-(3-chloro-2-pyridyl)-5-(2,2,2-trifluoroethoxy)pyrazole-3-carboxamide] | – | 158 to 160 | –
24 | COc1cc(C(=O)Nc2c(C(N)=O)cc3ccccc3c2Cl)n(-c2ncccc2Cl)n1 [P.13, N-(3-carbamoyl-1-chloro-2-naphthyl)-2-(3-chloro-2-pyridyl)-5-methoxy-pyrazole-3-carboxamide] | – | 154 to 156 | –
25 | NC(=O)c1nc2ccccc2c(Cl)c1NC(=O)c1cc(Br)nn1-c1ncccc1Cl [P.18, 3-[[5-bromo-2-(3-chloro-2-pyridyl)pyrazole-3-carbonyl]amino]-4-chloro-quinoline-2-carboxamide] | – | 204 to 206 | –
26 | NC(=O)c1cc2ccccc2c(Cl)c1NC(=O)c1cc(OC(F)F)nn1-c1ncccc1Cl [P.20, N-(3-carbamoyl-1-chloro-2-naphthyl)-2-(3-chloro-2-pyridyl)-5-(difluoromethoxy)pyrazole-3-carboxamide] | – | 143 to 145 | –
27 | NC(=O)c1cc2cc(Cl)ccc2c(Cl)c1NC(=O)c1cc(Br)nn1-c1ncccc1Cl [P.25, 5-bromo-N-(3-carbamoyl-1,6-dichloro-2-naphthyl)-2-(3-chloro-2-pyridyl)pyrazole-3-carboxamide] | 50 (≈ 92.7 µM) | – | –
28 | NC(=O)c1cc2cc(Br)ccc2c(Cl)c1NC(=O)c1cc(Cl)nn1-c1ncccc1Cl [P.26, N-(6-bromo-3-carbamoyl-1-chloro-2-naphthyl)-5-chloro-2-(3-chloro-2-pyridyl)pyrazole-3-carboxamide] | 50 (≈ 92.7 µM) | – | –
29 | NC(=O)c1cc2cc(Br)ccc2c(Cl)c1NC(=O)c1cc(Br)nn1-c1ncccc1Cl [P.27, 5-bromo-N-(6-bromo-3-carbamoyl-1-chloro-2-naphthyl)-2-(3-chloro-2-pyridyl)pyrazole-3-carboxamide] | 50 (≈ 85.6 µM) | – | –
30 | NC(=O)c1cc2cc(Br)ccc2c(Cl)c1NC(=O)c1cc(C(F)(F)F)nn1-c1ncccc1Cl [P.28, N-(6-bromo-3-carbamoyl-1-chloro-2-naphthyl)-2-(3-chloro-2-pyridyl)-5-(trifluoromethyl)pyrazole-3-carboxamide] | 50 (≈ 87.2 µM) | – | –
31 | NC(=O)c1cc2cc(Br)ccc2c(Br)c1NC(=O)c1cc(Cl)nn1-c1ncccc1Cl [P.31, 5-chloro-2-(3-chloro-2-pyridyl)-N-(1,6-dibromo-3-carbamoyl-2-naphthyl)pyrazole-3-carboxamide] | – | 170 to 172 | –
32 | Cc1ccc2c(C)c(NC(=O)c3cc(C(F)(F)F)nn3-c3ncccc3Cl)c(C(N)=O)cc2c1 [P.32, N-(3-carbamoyl-1,6-dimethyl-2-naphthyl)-2-(3-chloro-2-pyridyl)-5-(trifluoromethyl)pyrazole-3-carboxamide] | – | 216 to 218 | –
33 | Cn1cc2c(Cl)c(NC(=O)c3cc(C(F)(F)F)nn3-c3ncccc3Cl)c(C(N)=O)cc2n1 [P.36, 4-chloro-5-[[2-(3-chloro-2-pyridyl)-5-(trifluoromethyl)pyrazole-3-carbonyl]amino]-2-methyl-indazole-6-carboxamide] | 3 (≈ 6.02 µM) | – | Rate providing at least 80% control of the resistant strain of Plutella xylostella R4 [2]: 12.5 ppm
34 | Cc1c(NC(=O)c2cc(OCC(F)(F)F)nn2-c2ncccc2Cl)c(C(N)=O)cc2ncsc12 [P.44, 6-[[2-(3-chloro-2-pyridyl)-5-(2,2,2-trifluoroethoxy)pyrazole-3-carbonyl]amino]-7-methyl-1,3-benzothiazole-5-carboxamide] | – | 135 to 140 | –
35 | Cc1nc2cc(C(N)=O)c(NC(=O)c3cc(Br)nn3-c3ncccc3Cl)c(C)c2s1 [P.45, 6-[[5-bromo-2-(3-chloro-2-pyridyl)pyrazole-3-carbonyl]amino]-2,7-dimethyl-1,3-benzothiazole-5-carboxamide] | – | 175 to 180 | –
36 | Cc1nc2cc(C(N)=O)c(NC(=O)c3cc(Br)nn3-c3ncccc3Cl)c(C)c2o1 [P.46, 6-[[5-bromo-2-(3-chloro-2-pyridyl)pyrazole-3-carbonyl]amino]-2,7-dimethyl-1,3-benzoxazole-5-carboxamide] | – | – | Rate providing at least 80% control of the resistant strain of Plutella xylostella R4 [2]: 12.5 ppm
